Laboratory results taken from the supplement of paper PMC11061612.

Assays:
Assay in all cases: Bliss excess, mean over the matrix (fraction); higher = more synergy
[1] = system: BALL-1 (B-Lymphoblastic Leukemia)
Summary of the method: (§1)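 Cell lines in DMEM/F12 or RPMI with 10% FBS were plated in 1536-well plates, held 24 hours at 37°C, 5% CO2, then given two-drug dose matrices for 72 hours (DMSO typically 0.2%). Viability was read by CellTiter-Glo 2.0 luminescence and scaled as inhibition from 0 (vehicle wells) to 1 (blank wells). Combination Emax is the second-highest inhibition in the matrix; Bliss excess is observed combination effect minus expected EA + EB − EA·EB, EA and EB being single-agent effects.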

[2] = system: Becker (Low Grade Glioma)
Summary of the method: as §1

[3] = system: CML-T1 (Chronic Myelogenous Leukemia)
Summary of the method: as §1

[4] = system: Calu-6 (Non-Small Cell Lung Carcinoma)
Summary of the method: as §1

[5] = system: ES-2 (Ovarian Carcinoma)
Summary of the method: as §1

[6] = system: JHH-1 (Hepatocellular Carcinoma)
Summary of the method: as §1

[7] = system: KYSE-70 (Esophageal Squamous Cell Carcinoma)
Summary of the method: as §1

[8] = system: LAMA-84 (Chronic Myelogenous Leukemia)
Summary of the method: as §1

[9] = system: LOUCY (T-Lymphoblastic Leukemia)
Summary of the method: as §1

[10] = system: NCI-H1563 (Lung Adenocarcinoma)
Summary of the method: as §1

[11] = system: NCI-H810 (Non-Small Cell Lung Carcinoma)
Summary of the method: as §1

[12] = system: NKM-1 (Acute Myeloid Leukemia)
Summary of the method: as §1

[13] = system: OVTOKO (Ovarian Carcinoma)
Summary of the method: as §1

[14] = system: RERF-LC-KJ (Lung Adenocarcinoma)
Summary of the method: as §1

[15] = system: RL95-2 (Endometrial Carcinoma)
Summary of the method: as §1

[16] = system: RMG-I (Ovarian Carcinoma)
Summary of the method: as §1

[17] = system: RPMI-8866 (Chronic Myelogenous Leukemia)
Summary of the method: as §1

[18] = system: SJRH30 (Rhabdomyosarcoma)
Summary of the method: as §1

[19] = system: SK-MM-2 (Plasma Cell Myeloma)
Summary of the method: as §1

[20] = system: SW684 (Other Solid Carcinomas)
Summary of the method: as §1

Row | Structure (SMILES) | Bliss excess [1] | Bliss excess [2] | Bliss excess [3] | Bliss excess [4] | Bliss excess [5] | Bliss excess [6] | Bliss excess [7] | Bliss excess [8] | Bliss excess [9] | Bliss excess [10] | Bliss excess [11] | Bliss excess [12] | Bliss excess [13] | Bliss excess [14] | Bliss excess [15] | Bliss excess [16] | Bliss excess [17] | Bliss excess [18] | Bliss excess [19] | Bliss excess [20]
1 | CN(CCO)CC[C@H](CSc1ccccc1)Nc1ccc(S(=O)(=O)NC(=O)c2ccc(N3CCC([C@@H](O)c4ccccc4-c4ccc(Cl)cc4)CC3)cc2)cc1S(=O)(=O)C(F)(F)F [AZD4320] + C=CCn1c(=O)c2cnc(Nc3ccc(N4CCN(C)CC4)cc3)nc2n1-c1cccc(C(C)(C)O)n1 [AZD1775] (first compound max 1 µM, partner max 1 µM) | 0.0065 | 0.0046 | -0.0082 | 0.0019 | 0.0065 | 0.136 | -0.0011 | 0.083 | 0.002 | -0.0024 | 0.0105 | 0.035 | 0.0002 | -0.0076 | 0.006 | 0.0664 | 0.0402 | 0.0076 | 0.0011 | -0.0416
2 | CN(CCO)CC[C@H](CSc1ccccc1)Nc1ccc(S(=O)(=O)NC(=O)c2ccc(N3CCC([C@@H](O)c4ccccc4-c4ccc(Cl)cc4)CC3)cc2)cc1S(=O)(=O)C(F)(F)F [AZD4320] + CCN(CCO)CCCOc1ccc2c(Nc3cc(CC(=O)Nc4cccc(F)c4)[nH]n3)ncnc2c1 [AZD2811] (first compound max 1 µM, 7x7, partner max 1 µM) | 0.14 | -0.027 | 0.0624 | -0.0023 | -0.0208 | 0.0925 | 0.0483 | 0.0319 | -0.0011 | -0.0002 | 0.0178 | 0.0403 | -0.0324 | -0.028 | 0.119 | -0.0297 | 0.234 | 0.108 | -0.0113 | -0.0717
3 | CN(CCO)CC[C@H](CSc1ccccc1)Nc1ccc(S(=O)(=O)NC(=O)c2ccc(N3CCC([C@@H](O)c4ccccc4-c4ccc(Cl)cc4)CC3)cc2)cc1S(=O)(=O)C(F)(F)F [AZD4320] + CN(C)CCCOc1ccc(-c2ccc3ncc4c(c3c2)n(C2CCOCC2)c(=O)n4C)cn1 [AZD0156] (first compound max 1 µM, 7x7, partner max 1 µM) | -0.0185 | -0.035 | 0.013 | -0.0156 | -0.0259 | -0.0513 | -0.0124 | -0.0089 | -0.006 | -0.0496 | -0.0328 | -0.0871 | -0.0217 | -0.0413 | -0.0408 | -0.048 | -0.0756 | 0.0144 | 0.0468 | -0.0641
4 | CN(CCO)CC[C@H](CSc1ccccc1)Nc1ccc(S(=O)(=O)NC(=O)c2ccc(N3CCC([C@@H](O)c4ccccc4-c4ccc(Cl)cc4)CC3)cc2)cc1S(=O)(=O)C(F)(F)F [AZD4320] + C[C@@H]1COCCN1C2=NC(=NC(=C2)C3(CC3)[S@](=N)(=O)C)C4=C5C=CNC5=NC=C4 [AZD6738] (first compound max 1 µM, 7x7, partner max 10 µM) | 0.0096 | -0.0186 | 0.0149 | -0.0258 | -0.0061 | -0.0234 | -0.0096 | -0.0093 | -0.0092 | 0.0051 | -0.0762 | 0.0067 | -0.112 | -0.0377 | -0.0163 | -0.13 | 0.0527 | 0.0213 | -0.0126 | -0.0548
5 | CN(CCO)CC[C@H](CSc1ccccc1)Nc1ccc(S(=O)(=O)NC(=O)c2ccc(N3CCC([C@@H](O)c4ccccc4-c4ccc(Cl)cc4)CC3)cc2)cc1S(=O)(=O)C(F)(F)F [AZD4320] + C[C@@H](Nc1cc(F)cc(F)c1)c1cc(C(=O)N(C)C)cc2c(=O)cc(N3CCOCC3)oc12 [AZD8186] (first compound max 1 µM, 7x7, partner max 3 µM) | 0.0506 | 0.0186 | 0.0035 | 0.0264 | 0.0151 | -0.0258 | 0.0092 | 0.0355 | 0.0111 | 0.0295 | -0.0461 | 0.0224 | 0.0019 | 0.0703 | -0.0036 | -0.0066 | 0.0244 | 0.0718 | 0.0197 | -0.0356
6 | CN(CCO)CC[C@H](CSc1ccccc1)Nc1ccc(S(=O)(=O)NC(=O)c2ccc(N3CCC([C@@H](O)c4ccccc4-c4ccc(Cl)cc4)CC3)cc2)cc1S(=O)(=O)C(F)(F)F [AZD4320] + Cc1cc2ncnn2cc1Nc1ncc2c(n1)n(C1CCOCC1)c(=O)n2C [AZD7648] (first compound max 1 µM, 7x7, partner max 10 µM) | 0.0087 | -0.0211 | 0.0044 | -0.0522 | -0.0186 | -0.0576 | -0.0225 | -0.0161 | 0.0365 | -0.0322 | 0.004 | 0.0153 | -0.0393 | -0.0314 | -0.0186 | -0.0676 | 0.0654 | -0.0072 | -0.0268 | -0.0628
7 | CN(CCO)CC[C@H](CSc1ccccc1)Nc1ccc(S(=O)(=O)NC(=O)c2ccc(N3CCC([C@@H](O)c4ccccc4-c4ccc(Cl)cc4)CC3)cc2)cc1S(=O)(=O)C(F)(F)F [AZD4320] + Cn1cnc2c(F)c(Nc3ccc(Br)cc3Cl)c(C(=O)NOCCO)cc21 [Selumetinib] (first compound max 1 µM, 7x7, partner max 3 µM) | -0.0246 | 0.0084 | -0.0155 | -0.0019 | 0.0164 | 0.0527 | 0.0554 | 0.0207 | 0.0255 | 0.045 | -0.0577 | -0.0208 | 0.0554 | 0.0144 | 0.137 | -0.0401 | 0.0349 | 0.0587 | 0.0514 | 0.0194
8 | COc1nnc2ccc(N3CCC(c4ccc(OCCN5CCN(C)C(=O)[C@H]5C)cc4)CC3)nn12 [AZD5153] + C=CCn1c(=O)c2cnc(Nc3ccc(N4CCN(C)CC4)cc3)nc2n1-c1cccc(C(C)(C)O)n1 [AZD1775] (first compound max 1 µM, partner max 1 µM) | -0.0234 | -0.0421 | -0.116 | -0.0511 | -0.0435 | 0.0173 | -0.0519 | -0.0311 | -0.0527 | 0.0474 | -0.0578 | -0.124 | 0.0095 | -0.0224 | 0.0344 | -0.0187 | -0.0864 | -0.019 | -0.0484 | -0.054
9 | COc1nnc2ccc(N3CCC(c4ccc(OCCN5CCN(C)C(=O)[C@H]5C)cc4)CC3)nn12 [AZD5153] + CC1(C)CCC(CN2CCN(c3ccc(C(=O)NS(=O)(=O)c4ccc(NCC5CCOCC5)c([N+](=O)[O-])c4)c(Oc4cnc5[nH]ccc5c4)c3)CC2)=C(c2ccc(Cl)cc2)C1 [Venetoclax] (first compound max 1 µM, 7x7, partner max 1 µM) | -0.0141 | -0.0487 | 0.0479 | -0.0949 | -0.0677 | -0.0256 | -0.0793 | -0.0361 | 0.0241 | -0.0496 | -0.0474 | -0.0195 | -0.0682 | -0.0146 | -0.0558 | -0.0456 | -0.0979 | -0.0536 | -0.0111 | -0.0705
10 | COc1nnc2ccc(N3CCC(c4ccc(OCCN5CCN(C)C(=O)[C@H]5C)cc4)CC3)nn12 [AZD5153] + CCN(CCO)CCCOc1ccc2c(Nc3cc(CC(=O)Nc4cccc(F)c4)[nH]n3)ncnc2c1 [AZD2811] (first compound max 1 µM, 7x7, partner max 1 µM) | 0.0056 | 0.0134 | -0.0571 | -0.0563 | 0.0089 | -0.0292 | -0.0265 | 0.0006 | 0.0305 | -0.0508 | -0.0068 | -0.0201 | -0.0423 | -0.075 | -0.154 | -0.0479 | 0.0254 | 0.109 | -0.0366 | -0.0767
11 | COc1nnc2ccc(N3CCC(c4ccc(OCCN5CCN(C)C(=O)[C@H]5C)cc4)CC3)nn12 [AZD5153] + C[C@@H]1COCCN1C2=NC(=NC(=C2)C3(CC3)[S@](=N)(=O)C)C4=C5C=CNC5=NC=C4 [AZD6738] (first compound max 1 µM, 7x7, partner max 10 µM) | 0.0119 | 0.0137 | -0.0011 | -0.0567 | 0.0316 | 0.0386 | -0.0358 | 0.0202 | -0.0232 | 0.0203 | -0.0236 | -0.0373 | 0.0999 | 0.0393 | 0.0017 | -0.0261 | -0.0364 | 0.0588 | -0.0831 | -0.042
12 | COc1nnc2ccc(N3CCC(c4ccc(OCCN5CCN(C)C(=O)[C@H]5C)cc4)CC3)nn12 [AZD5153] + Cc1c2c(nn1C)CSCc1cc(n(C)n1)CSc1cc(c3ccccc3c1)OCCCc1c(C(=O)O)n(C)c3c-2c(Cl)ccc13 [AZD5991] (first compound max 1 µM, 7x7, partner max 1 µM) | -0.0409 | -0.0815 | 0.0065 | -0.131 | -0.0534 | 0.106 | -0.0652 | 0.005 | 0.0187 | 0.0341 | 0.0448 | -0.0491 | -0.0536 | 0.006 | -0.0414 | -0.0553 | -0.0361 | 0.0045 | -0.0156 | -0.108
13 | COc1nnc2ccc(N3CCC(c4ccc(OCCN5CCN(C)C(=O)[C@H]5C)cc4)CC3)nn12 [AZD5153] + Cn1cnc2c(F)c(Nc3ccc(Br)cc3Cl)c(C(=O)NOCCO)cc21 [Selumetinib] (first compound max 1 µM, 7x7, partner max 10 µM) | -0.0274 | 0.0472 | -0.14 | 0.0533 | 0.0345 | 0.0139 | 0.0097 | 0.0757 | 0.0484 | -0.085 | -0.0224 | 0.0071 | -0.0591 | -0.113 | -0.0221 | -0.0486 | -0.0233 | 0.0152 | -0.004 | -0.0187
